Experimental findings from patent US20210317092A1 (BAYER PHARMA AKTIENGESELLSCHAFT, priority 2016, published 2021) are described below.

This assay addresses T1, human Bradykinin B1 receptor (Homo sapiens, UniProt P46663).
T1 construct: host or cells: CHO-K1
T1 sequence (P46663 1-353): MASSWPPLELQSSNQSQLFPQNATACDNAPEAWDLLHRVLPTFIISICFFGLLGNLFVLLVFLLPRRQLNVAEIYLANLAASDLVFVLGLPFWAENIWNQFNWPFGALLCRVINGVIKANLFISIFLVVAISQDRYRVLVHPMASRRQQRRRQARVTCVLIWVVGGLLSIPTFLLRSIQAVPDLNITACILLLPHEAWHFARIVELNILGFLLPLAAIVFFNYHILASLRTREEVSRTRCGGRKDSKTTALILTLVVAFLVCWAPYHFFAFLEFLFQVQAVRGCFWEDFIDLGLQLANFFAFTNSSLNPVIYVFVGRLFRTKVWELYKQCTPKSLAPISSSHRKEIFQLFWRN
Briefly: Calcium flux Assay (FLIPR) with recombinant CHO-K1 cells expressing human Bradykinin B1 receptor, in presence (hB1 IC50) or absence (hB1 free IC50) of 0.1% BSA. Type of assay: cell-based. On the procedure: The potency to inhibit the Bradykinin B1 receptor was determined for the compounds of this invention in a cell-based fluorescent calcium-mobilisation assay. The assay measures the ability of test compounds to inhibit Bradykinin B1 receptor agonist-induced increase of intracellular free Ca^2+ in the cell line expressing Bradykinin B1 receptor. […] The change of the intracellular Ca^2+ concentration is monitored with a fluorescent plate reader FLIPR TETRA® (Molecular Devices).
Calcium flux Assays (FLIPR) with cells expressing human Bradykinin B1 receptor (hB1)
CHO-K1 cell line expressing human Bradykinin B1 receptor was purchased from Euroscreen (Gosselies, Belgium, with reference name hB1-D1). The cells were grown in Nutrient Mixture Ham's F12 (Sigma) containing 10% Foetal bovine serum (Sigma) and 400 μg/mL G418 (Sigma), 5 μg/mL puromycim (Sigma). […]
Cells were seeded in a volume of 50 μL in medium without antibiotics and incubated overnight in a humidified atmosphere with 5% CO2 at 37° C. […] The calcium indicator loaded cells were incubated at 37° C. for 2 hrs. Extracellular dye was then removed and each well was filled with 45 μL of assay buffer. Cell plates were kept in dark until used. Compound examples were assayed at 8 concentrations in triplicate. Serial 10-fold dilutions in 100% DMSO were made at a 100-times higher concentration than the final concentration, and then diluted 1:10 in assay buffer. 5 μL of each diluted compound was added to the well of cell plates (yielding final concentration with 1% DMSO), and incubated for 30 min at 28° C. before the addition of Bradykinin B1 receptor agonist on the FLIPR instrument.
A peptide antagonist Lys-(Des-Arg-Leu)-Bradykinin (Bachem, Brackley) at 20 µM was used to determine the full inhibition as control.
Peak fluorescence was used to determine the response to agonist obtained at each concentration of compound examples by the following equation:
% Response=100*(RFU(compound)−RFU(control))/(RFU(DMSO)−RFU(control)) • RFU means relative fluorescence units. • Control means full inhibition by the peptide antagonist Lys-(Des-Arg-Leu)-Bradykinin at 20 µM.
The response values were plotted against the logarithm of the compound concentrations. The compound examples were tested in triplicates per plate and mean values were plotted in Excel XLfit to determine IC50 values, percentage of maximal inhibition and the Hill slopes.

The mark [1] stands for this setting: in absence of 0.1% BSA, read-out: hB1 free IC50.
[2] abbreviates: in presence of 0.1% BSA, read-out: hB1 IC50.

Read-outs that look alike come from different tables or passages of the source.

Regarding `O=C(Nc1ccc(-c2cc3c(Cl)nccc3o2)c(-c2nnn[nH]2)c1)C1(c2cccc(Cl)c2)CC1` [Example 332, N-[4-(4-chlorofuro[3,2-c]pyridin-2-yl)-3-(1H-tetrazol-5-yl)phenyl]-1-(3-chlorophenyl)cy-clopropanecarbox-amide], the IC50 turned out to be 191 nM under setting [1] and 274 nM under setting [2].

In the case of `COc1cc(-c2ccc(NC(=O)C3(c4cccc(Cl)c4)CC3)cc2-c2nnn[nH]2)cc(C(F)(F)F)c1` [Example 134, 1-(3-chlorophenyl)-N-[3′-methoxy-2-(1H-tetrazol-5-yl)-5′-(trifluoromethyl)biphenyl-4-yl]cyclopropane carboxamide], the IC50 under setting [1] is 572 nM.

As to `N#Cc1ccc(-c2ccc(NC(=O)C3(c4cccc(Cl)c4)CC3)cc2-c2nnn[nH]2)cc1F` [Example 186, 1-(3-chlorophenyl)-N-[4′-cyano-3′-fluoro-2-(1H-tetrazol-5-yl)biphenyl-4-yl]cyclopropane carboxamide], the half-inhibitory concentration (IC50) under setting [1] came to 252 nM.

In the case of `O=C(Nc1ccc(-c2ccc(C(F)(F)F)nc2)c(-c2nnn[nH]2)c1)C1(c2ccc(F)cc2F)CC1` [Example 142, 1-(2,4-difluorophenyl)-N-{3-(1H-tetrazol-5-yl)-4-[6-(trifluoromethyl)pyridin-3-yl]phenyl} cyclopropane-carboxamide], under setting [1], the half-inhibitory concentration (IC50) was determined as 201 nM.

As to `N#Cc1cc(F)cc(-c2ccc(NC(=O)C3(c4cccc(Cl)c4)CC3)cc2-c2nnn[nH]2)c1` [Example 337, 1-(3-chlorophenyl)-N-[3′-cyano-5′-fluoro-2-(1H-tetrazol-5-yl)biphenyl-4-yl]cyclopropane carboxamide], the IC50 under setting [2] is 2030 nM.

On to `Cc1nc(C(F)(F)F)cn1-c1ccc(NC(=O)C2(c3ccc(C(F)(F)F)cc3F)CC2)cc1-c1nnn[nH]1` [Example 370, 1-[2-Fluoro-4-(trifluoromethyl)phenyl]-N-{4-[2-methyl-4-(trifluoromethyl)-1H-imidazol-1-yl]-3-(1H-tetrazol-5-yl)phenyl}cyclopro-panecarboxa-mide], for which the IC50 under setting [1] was found to be 873 nM.

Turning to `O=C(Nc1ccc(-c2ccc(C(F)(F)F)nc2)c(-c2nnn[nH]2)c1)C1(c2ccc(F)cc2)CC1` [Example 204, 1-(4-fluorophenyl)-N-{3-(1H-tetrazol-5-yl)-4-[6-(trifluoromethyl)pyridin-3-yl]phenyl} cyclopropane-carboxamide], the half-inhibitory concentration (IC50) under setting [1] came to 125 nM.

Turning to `O=C(Nc1ccc(-n2cnc(C(F)(F)F)c2)c(-c2nnn[nH]2)c1)C1(c2ccc(C(F)(F)F)cc2F)CC1` [Example 347, 1-[2-Fluoro-4-(trifluoromethyl)phenyl]-N-{3-(1H-tetrazol-5-yl)-4-[4-(trifluoromethyl)-1H-imidazol-1-yl]phenyl}cyclopro-panecarboxa-mide], under setting [1], the concentration for half-maximal inhibition (IC50) was 96.6 nM.

`COc1ccc(-c2ccc(NC(=O)C3(C4CCC(C)CC4)CC3)cc2-c2nnn[nH]2)cc1` (mixture of isomers) [Example 114, N-[4′-methoxy-2-(1H-tetrazol-5-yl)biphenyl-4-yl]-1-(4-methylcyclo-hexyl) cyclopropane carboxamide]: under setting [2], the half-maximal inhibitory concentration (IC50) is 1350 nM.

On to `CCOc1ccc(-c2ccc(NC(=O)C(C)(C)C)cc2-c2nnn[nH]2)cn1` [Example 309, N-[4-(6-ethoxypyridin-3-yl)-3-(1H-tetrazol-5-yl)phenyl]-2,2-dimethylpropan-amide], for which the IC50 under setting [1] is 587 nM.

Consider `O=C(Nc1ccc(-c2ccnc(C(F)(F)F)c2)c(-c2nnn[nH]2)c1)C1(c2ccc(Cl)c(F)c2)CC1` [Example 177, 1-(4-chloro-3-fluorophenyl)-N-{3-(1H-tetrazol-5-yl)-4-[2-(trifluoromethyl)pyridin-4-yl]phenyl} cyclopropane-carboxamide], for which the IC50 under setting [1] came to 274 nM.

Consider `O=C(Nc1ccc(-c2ccc(C(F)(F)F)nc2)c(-c2nnn[nH]2)c1)C1(c2ccc(C(F)(F)F)cc2Cl)CC1` [Example 292, 1-[2-chloro-4-(trifluoromethyl)phenyl]-N-{3-(1H-tetrazol-5-yl)-4-[6-(trifluoromethyl)pyridin-3-yl]phenyl}cyclopro-panecarboxa-mide], for which, under setting [1], the IC50 is 7.85 nM.

`CC(F)(F)c1ccc(-c2ccc(NC(=O)C3(c4ccc(C(F)(F)F)cc4)CC3)cc2-c2nnn[nH]2)cn1` [Example 277, N-{4-[6-(1,1-difluoroethyl)py-ridin-3-yl]-3-(1H-tetrazol-5-yl)phenyl}-1-[4-(trifluoromethyl)phenyl]cyclopro-panecarboxamide]: the concentration for half-maximal inhibition (IC50) under setting [1] came out at 3.19 nM.

For the molecule `CCc1cccc(C2(C(=O)Nc3ccc(-c4ccc(OC)c(OC)c4)c(-c4nnn[nH]4)c3)CC2)c1` [Example 40, N-[3′,4′-dimethoxy-2-(1H-tetrazol-5-yl)biphenyl-4-yl]-1-(3-ethylphenyl) cyclopropane-carboxamide], the IC50 under setting [2] came out at 31.4 nM.

As for `N#Cc1ncc(-c2ccc(NC(=O)C3(c4cccc(Cl)c4)CC3)cc2-c2nnn[nH]2)cn1` [Example 334, 1-(3-chlorophenyl)-N-[4-(2-cyanopyrimidin-5-yl)-3-(1H-tetrazol-5-yl)phenyl]cyclopro-panecarboxa-mide], the IC50 under setting [1] was found to be 99.8 nM and the IC50 under setting [2] was determined as 936 nM.

For the molecule `CCC(F)(F)c1ccc(-c2ccc(NC(=O)C3(c4ccc(F)c(F)c4)CC3)cc2-c2nnn[nH]2)cn1` [Example 284, 1-(3,4-difluorophenyl)-N-{4-[6-(1,1-difluoropropyl)py-ridin-3-yl]-3-(1H-tetrazol-5-yl)phenyl}cyclopro-panecarboxa-mide], the IC50 under setting [1] was 15.3 nM.

On to `O=C(Nc1ccc(-c2ccc(C(F)(F)F)nc2)c(-c2nnn[nH]2)c1)C1(c2ccc(C(F)(F)F)c(F)c2)CC1` [Example 288, 1-[3-fluoro-4-(trifluoromethyl)phenyl]-N-{3-(1H-tetrazol-5-yl)-4-[6-(trifluoromethyl)pyridin-3-yl]phenyl}cyclopro-panecarboxa-mide], for which the IC50 under setting [1] is 6.81 nM.

`CCOc1ccc(-c2ccc(NC(=O)C3(c4cccc(CC)c4)CC3)cc2-c2nnn[nH]2)cn1` [Example 95, N-[4-(6-ethoxypyridin-3-yl)-3-(1H-tetrazol-5-yl)phenyl]-1-(3-ethylphenyl) cyclopropane-carboxamide]: the 50% inhibitory concentration (IC50) by setting is: under setting [1], 10.4 nM; under setting [2], 14.5 nM.

With `O=C(Nc1cc(-c2nnn[nH]2)c(-c2ccc(C(F)(F)F)nc2)cc1O)C1(c2ccc(Cl)cc2F)CC1` [Example 221, 1-(4-chloro-2-fluorophenyl)-N-{2-hydroxy-5-(1H-tetrazol-5-yl)-4-[6-(trifluoromethyl)pyridin-3-yl]phenyl} cyclopropane-carboxamide], the IC50 under setting [2] amounted to 160 nM.

For the molecule `CCOc1ccc(-c2ccc(NC(=O)C3(C(C)C)CC3)cc2-c2nnn[nH]2)cn1` [Example 90, N-[4-(6-ethoxypyridin-3-yl)-3-(1H-tetrazol-5-yl)phenyl]-1-isopropyl-cyclopropane-carboxamide], under setting [2], the half-maximal inhibitory concentration (IC50) worked out at 1560 nM.

On to `CCc1ccn(-c2ccc(NC(=O)C3(c4ccc(OC(F)(F)F)cc4F)CC3)cc2-c2nnn[nH]2)n1` [Example 373, N-[4-(3-Ethyl-1H-pyrazol-1-yl)-3-(1H-tetrazol-5-yl)phenyl]-1-[2-fluoro-4-(trifluoromethoxy)phenyl]cyclo-propanecarboxa-mide], for which, under setting [1], the half-inhibitory concentration (IC50) was determined as 24.2 nM.

For `Cc1ccc(C2(C(=O)Nc3ccc(-c4ccc(C(C)(F)F)nc4)c(-c4nnn[nH]4)c3)CC2)c(F)c1` [Example 280, N-{4-[6-(1,1-difluoroethyl)py-ridin-3-yl]-3-(1H-tetrazol-5-yl)phenyl}-1-(2-fluoro-4-methylphenyl)cy-clopropanecar-boxamide], the IC50 under setting [1] amounted to 11.3 nM.

As for `COc1ccc(-c2ccc(NC(=O)C3(c4ccccc4F)CC3)cc2-c2nnn[nH]2)cc1OC` [Example 3, N-[3′,4′-dimethoxy-2-(1H-tetrazol-5-yl)biphenyl-4-yl]-1-(2-fluorophenyl) cyclopropane-carboxamide], the IC50 under setting [2] amounted to 54.8 nM.

On to `Cc1ccc(C2(C(=O)Nc3ccc(-c4ccc(C(F)(F)F)nc4)c(-c4nnn[nH]4)c3F)CC2)c(F)c1` [Example 299, 1-(2-fluoro-4-methylphenyl)-N-{2-fluoro-3-(1H-tetrazol-5-yl)-4-[6-(trifluoromethyl)pyridin-3-yl]phenyl}cyclopro-panecarboxa-mide], for which the IC50 under setting [1] was found to be 241 nM.
